Key:
Type in all cases: in vivo
[1] = test system: cotton aphid (Aphis gossypii); assay: Example 4: Aphis gossypii on Cotton (DP444 BG/RR), dip application, kill in %; settings: 0.8 ppm
Experimental: Individually potted transgenic cotton plants with Lepidoptera resistance and herbicide resistance (cultivar DP444 BG/RR), which are populated by a mixed population of the cotton aphid (Aphis gossypii) are treated by dip application with the respective active compound.
After the desired period of time, the kill in % is determined. 100% means that all aphids have been killed; 0% means that none of the aphids have been killed.

[2] = test system: larvae of the cotton bollworm (Heliothis armigera); assay: Example 5: Heliothis armigera on Cotton (DP444 BG/RR), dip application, kill in %
Experimental: Individually potted transgenic cotton plants with Lepidoptera resistance and herbicide resistance (cultivar DP444 BG/RR) are treated in 2 replications against larvae of the cotton bollworm (Heliothis armigera). Application is carried out by dip application with the respective active compound at the desired application rate.
(§1) After the desired period of time, the kill in % is determined. 100% means that all caterpillars have been killed; 0% means that none of the caterpillars have been killed.

[3] = test system: larvae of the beet armyworm (Spodoptera exigua); assay: Example 8: Spodoptera exigua on Maize, dip application, kill in %; settings: 100 ppm
Experimental: (§2) Pots with in each case 5 transgenic maize plants having Coleoptera, Lepidoptera and/or herbicide resistance (cultivars LH332RR×LH324BT, LH244RR×LH324, HC33CRW×LH287BTCRW and TR47×TR 7322 BT) are treated in 2 replications against larvae of the beet armyworm (Spodoptera exigua). Application is carried out by dip application with the respective active compound at the desired application rate.
as §1

[4] = test system: armyworm (Spodoptera frugiperda); assay: Example 9: Spodoptera frugiperda on Maize, dip application, kill in %; settings: 100 ppm
Experimental: as §2, with “HC33CRW×LH287BTCRW,” for “LH332RR×LH324BT, LH244RR×LH324, HC33CRW×LH287BTCRW and”, “against” for “against larvae of”, “the” for “the beet”, “frugiperda).” for “exigua).”
as §1

[5] = test system: armyworm (Spodoptera frugiperda); assay: Example 10: Spodoptera frugiperda on Maize (Drench Application), kill in %; settings: 100 ppm
Experimental: Pots with in each case 5 transgenic maize plants having Coleoptera. Lepidoptera and/or herbicide resistance (cultivars HC33CRW×LH287BTCRW, LH332RR×LH324BT, LH24-4RR×LH324 and FR 1064LL×FR 2108) are treated in 2 replications against the armyworm (Spodoptera frugiperda). Application is carried out by drench application with the respective active compound at the desired application rate.
as §1

[6] = test system: armyworm (Spodoptera frugiperda); assay: Example 6: Spodoptera frugiperda on Cotton (DP444 BG/RR), dip application, kill in %
Experimental: Individually potted transgenic cotton plants with Lepidoptera resistance and herbicide resistance (cultivar DP444 BG/RR) are treated in 2 replications against the armyworm (Spodoptera frugiperda). Application is by dip application with the respective active compound at the desired application rate.
as §1

[7] = test system: larvae of the banded cucumber beetle (Diabrotica balteata); assay: Example 7: Diabrotica balteata on Maize, drench application, kill in %; settings: 100 ppm
Experimental: Pots with in each case 5 transgenic maize plants having Coleoptera, Lepidoptera and/or herbicide resistance (cultivars LH244RR×LH324 and HCL 201CRW2RR2×LH 324) are treated in 2 replications against larvae of the banded cucumber beetle (Diabrotica balteata). Application is carried out by drench application with the respective active compound at the desired application rate.
After the desired period of time, the kill in % is determined. 100% means that all beetle larvae have been killed; 0% means that none of the beetle larvae have been killed.

Structure (SMILES)	Kill rate in % after 6d (found) ([1]; after 6 d)	Kill rate in % after 4d (found) ([2]; 100 ppm)	Kill rate in % after 4d (found) [3]	Kill rate in % after 4d (found) [4]	Kill rate in % after 6d (found) [5]	Kill rate in % after 1d (found) ([1]; after 1 d)	Kill rate in % after 4d (found) ([6]; 20 ppm, after 4 d)	Kill rate in % after 10d (found) [7]	Kill rate in % after 1d (found) ([4]; after 1 d)	Kill rate in % after 4d (found) ([2]; 20 ppm)	Kill rate in % after 6d (found) ([6]; 100 ppm, after 6 d)
O=C1C=C(N(CCF)Cc2ccc(Cl)nc2)CO1 [Compound I-4, 4-{[(6-chloropyrid-3-yl)methyl](2-fluoroethyl)amino}furan-2(5H)-one]	15%	0%	0%	0%	15%	–	–	–	–	–	–
O=C1C=C(N(Cc2ccc(Cl)nc2)CC(F)F)CO1 [Compound I-5, 4-{[(6-chloropyrid-3-yl)methyl](2,2-difluoroethyl)amino}furan-2(5H)-one]	–	–	–	10%	–	40%	0%	45%	0%	–	–
CN(Cc1cnc(Cl)c(F)c1)C1=CC(=O)OC1 [Compound I-6, 4-{[(6-chloro-5-fluoropyrid-3-yl)methyl](methyl)amino}furan-2(5H)-one]	–	–	0%	0%	0%	–	–	–	–	0%	20%
CN(Cc1ccc(Cl)nc1)C1=CC(=O)OC1 [Compound I-10, 4-{[(6-chloropyrid-3-yl)methyl](methyl)amino}furan-2(5H)-one]	–	–	10%	–	0%	–	–	–	–	–	–
